For 13 compounds, TGI results are on record in PubChem BioAssay (NCI).

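A five-concentration, 48-hour dose response in 96-well plates underlies each endpoint, interpolated linearly between surrounding concentrations. The concentration for full growth arrest is given as TGI.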 Some results are limits rather than exact numbers.

Some test systems named below: 786-0 renal; BT-549 breast; EKVX NSCLC; HCT-15 colon; HL-60(TB) leukemia; M14 melanoma; MCF7 breast; NCI-H226 lung; NCI-H460 lung; NCI-H522 lung; NCI/ADR-RES ovarian; RXF 393 renal; SF-539 CNS; SK-OV-3 ovarian; SNB-19 CNS; SNB-75 CNS; UACC-257 melanoma; UACC-62 melanoma.
What all share (test): inhibition of tumour cell growth, NCI panel, 48 h

`[O-][n+]1onc(-c2ccccc2)c1CN1CCOCC1`: the TGI in the assay on 786-0 renal, with BT-549 breast, in the assay with EKVX NSCLC, with HCT-15 colon, with HL-60(TB) leukemia and in the assay with M14 melanoma was more than 100 µM each time. For the same compound, the TGI in the assay on MCF7 breast, in the assay with NCI-H226 lung, in the assay with NCI-H460 lung, with NCI-H522 lung, in the assay on NCI/ADR-RES ovarian and with RXF 393 renal was more than 100 µM in each case. Further, the TGI in the assay on SF-539 CNS, with SK-OV-3 ovarian, in the assay on SNB-19 CNS, in the assay on SNB-75 CNS, in the assay on UACC-257 melanoma and with UACC-62 melanoma was more than 100 µM in each case.
For `CN(/N=C/c1ccccn1)C1=NCCCCN1`, the TGI in the assay with 786-0 renal, with BT-549 breast, in the assay on EKVX NSCLC, with HCT-15 colon, in the assay with HL-60(TB) leukemia and in the assay on M14 melanoma was more than 100 µM throughout. The TGI in the assay on MCF7 breast, in the assay with NCI-H226 lung, with NCI-H460 lung, in the assay with NCI-H522 lung, with NCI/ADR-RES ovarian and in the assay with RXF 393 renal was more than 100 µM in each case. Besides, the TGI with SF-539 CNS, in the assay with SK-OV-3 ovarian, in the assay with SNB-19 CNS, with SNB-75 CNS, in the assay on UACC-257 melanoma and in the assay with UACC-62 melanoma was more than 100 µM in each case.
For the compound `COc1cc(C2c3cc4c(cc3OC(Nc3ccccc3)C2C)OCO4)cc(OC)c1OC` (centres undefined), the TGI in the assay with 786-0 renal was more than 100 µM; in the assay with BT-549 breast, more than 90.9 µM; with EKVX NSCLC, more than 88.5 µM; in the assay on HCT-15 colon, more than 21.6 µM; with HL-60(TB) leukemia it was 0.593 µM; in the assay on M14 melanoma, more than 86.5 µM. For the same compound, the TGI was more than 100 µM with MCF7 breast; 12.8 µM in the assay with NCI-H226 lung; more than 100 µM with NCI-H460 lung; 2.04 µM with NCI-H522 lung; more than 100 µM with NCI/ADR-RES ovarian; more than 100 µM in the assay with RXF 393 renal. The TGI in the assay with SF-539 CNS was 0.697 µM; in the assay with SK-OV-3 ovarian it was more than 100 µM; in the assay with SNB-19 CNS, more than 100 µM; in the assay on SNB-75 CNS it was 99.2 µM; in the assay on UACC-257 melanoma, more than 86.2 µM; in the assay with UACC-62 melanoma, more than 100 µM.
Turning to `CN(C)CCCCN1c2ccccc2Sc2cc(N=[N+]=[N-])ccc21`, the TGI worked out at 3.08 µM with 786-0 renal; 22.9 µM in the assay on BT-549 breast; 15.5 µM with EKVX NSCLC; 4.53 µM with HCT-15 colon; 3.94 µM with HL-60(TB) leukemia; 3.08 µM in the assay on M14 melanoma. Further, the TGI in the assay with MCF7 breast came to 3.32 µM; with NCI-H226 lung, 7.9 µM; with NCI-H460 lung, 3.83 µM; with NCI-H522 lung, 3.05 µM; with NCI/ADR-RES ovarian, 4.07 µM; in the assay with RXF 393 renal, 10.6 µM. Moreover, the TGI with SF-539 CNS stood at 3.4 µM; in the assay with SK-OV-3 ovarian, 5.1 µM; in the assay with SNB-19 CNS it was 19.9 µM; in the assay on SNB-75 CNS, 4.8 µM; in the assay on UACC-257 melanoma, 3.25 µM; in the assay on UACC-62 melanoma it was 3.31 µM.
Take `COC1CC(OC2CCC3(C)C(CCC45CCC(C6=CC(=O)OC6)C(C)(CCC43)C5=O)C2)OC(C)C1O` (centres undefined): the TGI with 786-0 renal is 64.8 µM; in the assay with BT-549 breast, 55.3 µM; with EKVX NSCLC, more than 100 µM; with HCT-15 colon, 52.2 µM; in the assay with HL-60(TB) leukemia, 43.7 µM; with M14 melanoma, more than 100 µM. In addition, the TGI is more than 100 µM in the assay with MCF7 breast; more than 100 µM in the assay with NCI-H226 lung; 32.4 µM in the assay with NCI-H460 lung; 82.1 µM in the assay on NCI-H522 lung; more than 100 µM in the assay on NCI/ADR-RES ovarian; 89.4 µM with RXF 393 renal. In addition, the TGI was 63.3 µM with SF-539 CNS; more than 100 µM in the assay with SK-OV-3 ovarian; 63.6 µM in the assay with SNB-19 CNS; more than 100 µM in the assay with SNB-75 CNS; more than 100 µM in the assay with UACC-257 melanoma; more than 100 µM with UACC-62 melanoma.
With `CCCCC(=O)NC1(c2cc3ccccc3s2)CCCCC1`, the TGI with 786-0 renal is more than 100 µM; with BT-549 breast, more than 100 µM; in the assay on EKVX NSCLC, more than 100 µM; with HCT-15 colon, more than 100 µM; in the assay on HL-60(TB) leukemia, 76.5 µM; with M14 melanoma, more than 100 µM. For the same compound, the TGI with MCF7 breast, with NCI-H226 lung, in the assay on NCI-H460 lung, in the assay on NCI-H522 lung, in the assay with NCI/ADR-RES ovarian and in the assay with RXF 393 renal was more than 100 µM throughout. Further, the TGI with SF-539 CNS, in the assay on SK-OV-3 ovarian, in the assay with SNB-19 CNS, in the assay on SNB-75 CNS, with UACC-257 melanoma and in the assay with UACC-62 melanoma was more than 100 µM in each case.
With `COC(=O)C(=O)C(C(=O)C(=O)Nc1ccccc1C(C)=O)c1nc2ccc(C(=O)c3ccccc3)cc2[nH]c1=O` (centres undefined), the TGI in the assay on 786-0 renal, in the assay on BT-549 breast, with EKVX NSCLC, in the assay on HCT-15 colon, with HL-60(TB) leukemia and in the assay with M14 melanoma was more than 100 µM each time. The TGI with MCF7 breast, in the assay with NCI-H226 lung, in the assay on NCI-H460 lung, in the assay with NCI-H522 lung, with NCI/ADR-RES ovarian and in the assay on RXF 393 renal was more than 100 µM throughout. Besides, the TGI with SF-539 CNS, in the assay on SK-OV-3 ovarian, in the assay with SNB-19 CNS, in the assay on SNB-75 CNS, in the assay on UACC-257 melanoma and in the assay with UACC-62 melanoma was more than 100 µM throughout.
In the case of `CC(=O)NC1C(O)C(O)C(CO)OC1n1ncc(=O)[nH]c1=O` (centres undefined), the TGI in the assay on 786-0 renal, in the assay on BT-549 breast, in the assay with EKVX NSCLC, in the assay with HCT-15 colon, with HL-60(TB) leukemia and with M14 melanoma was more than 100 µM in each case. The TGI in the assay with MCF7 breast, in the assay on NCI-H226 lung, with NCI-H460 lung, in the assay on NCI-H522 lung, in the assay on NCI/ADR-RES ovarian and with RXF 393 renal was more than 100 µM throughout. For the same compound, the TGI in the assay on SF-539 CNS, in the assay on SK-OV-3 ovarian, in the assay with SNB-19 CNS, with SNB-75 CNS, in the assay with UACC-257 melanoma and in the assay with UACC-62 melanoma was more than 100 µM in each case.
Turning to `Cn1c(NS(=O)(=O)c2ccccc2)nc2ccccc21`, the TGI in the assay with 786-0 renal, with BT-549 breast, with EKVX NSCLC, with HCT-15 colon, with HL-60(TB) leukemia and in the assay with M14 melanoma was more than 100 µM throughout. Moreover, the TGI with MCF7 breast, with NCI-H226 lung, in the assay with NCI-H460 lung, in the assay on NCI-H522 lung, with NCI/ADR-RES ovarian and in the assay with RXF 393 renal was more than 100 µM throughout. The TGI in the assay on SF-539 CNS, in the assay on SK-OV-3 ovarian, with SNB-19 CNS, in the assay with SNB-75 CNS, in the assay with UACC-257 melanoma and in the assay with UACC-62 melanoma was more than 100 µM throughout.
For `CCC1=CC2Cc3nc4cc(Cl)ccc4c(N)c3C(C1)C2` (centres undefined), the TGI with 786-0 renal is 11.9 µM; in the assay with BT-549 breast, 35.4 µM; with EKVX NSCLC, 11.6 µM; in the assay with HCT-15 colon, more than 37.7 µM; in the assay with HL-60(TB) leukemia, 7.42 µM; with M14 melanoma, 3.16 µM. Also, the TGI with MCF7 breast was found to be 17.6 µM; in the assay on NCI-H226 lung, 5.73 µM; in the assay with NCI-H460 lung, 18.5 µM; with NCI-H522 lung, 16.1 µM; with NCI/ADR-RES ovarian it was 27.6 µM; in the assay on RXF 393 renal it was 8.15 µM. The TGI came out at 28.8 µM in the assay on SF-539 CNS; 25.9 µM with SK-OV-3 ovarian; 22.7 µM with SNB-19 CNS; 18.5 µM in the assay with SNB-75 CNS; 4.72 µM in the assay on UACC-257 melanoma; 18.4 µM in the assay on UACC-62 melanoma.
Turning to `COc1ccc(-c2c(CN3CCOCC3)sc3nc4ccccc4n23)cc1`, the TGI is more than 76.8 µM in the assay with 786-0 renal; more than 100 µM in the assay with BT-549 breast; more than 57.4 µM in the assay on EKVX NSCLC; more than 95 µM in the assay on HCT-15 colon; more than 73.2 µM in the assay on HL-60(TB) leukemia; more than 100 µM with M14 melanoma. For the same compound, the TGI in the assay with MCF7 breast was more than 100 µM; in the assay with NCI-H226 lung it was more than 79.8 µM; with NCI-H460 lung, 53.5 µM; in the assay with NCI-H522 lung it was more than 20.2 µM; with NCI/ADR-RES ovarian, more than 42.8 µM; in the assay with RXF 393 renal it was more than 47.5 µM. Further, the TGI in the assay with SF-539 CNS is 41.7 µM; in the assay on SK-OV-3 ovarian, 94.9 µM; in the assay with SNB-19 CNS, more than 57.1 µM; in the assay on SNB-75 CNS it was more than 100 µM; in the assay with UACC-257 melanoma, more than 100 µM; in the assay with UACC-62 melanoma, more than 100 µM.
Take `NC1=NN(c2ccccc2)C2(O)c3ccncc3C3=NN(c4ccccc4)C(=O)C132` (centres undefined): the TGI in the assay on 786-0 renal, in the assay with BT-549 breast, with EKVX NSCLC, in the assay with HCT-15 colon, in the assay on HL-60(TB) leukemia and in the assay with M14 melanoma was more than 100 µM in each case. In addition, the TGI in the assay on MCF7 breast, in the assay with NCI-H226 lung, in the assay with NCI-H460 lung, in the assay on NCI-H522 lung, with NCI/ADR-RES ovarian and in the assay on RXF 393 renal was more than 100 µM each time. Also, the TGI with SF-539 CNS, with SK-OV-3 ovarian, in the assay on SNB-19 CNS, in the assay on SNB-75 CNS, in the assay on UACC-257 melanoma and in the assay on UACC-62 melanoma was more than 100 µM each time.
Consider `COc1cc(Nc2cnc3cc(F)c(F)cc3n2)cc(OC)c1`, for which the TGI in the assay on 786-0 renal, with BT-549 breast, with EKVX NSCLC, in the assay on HCT-15 colon, in the assay on HL-60(TB) leukemia and with M14 melanoma was more than 100 µM each time. In addition, the TGI was more than 100 µM in the assay with MCF7 breast; more than 100 µM with NCI-H226 lung; more than 100 µM in the assay on NCI-H460 lung; 42.4 µM with NCI-H522 lung; more than 100 µM with NCI/ADR-RES ovarian; 51.2 µM in the assay on RXF 393 renal. Further, the TGI was more than 100 µM with SF-539 CNS; 79.1 µM in the assay on SK-OV-3 ovarian; more than 100 µM in the assay on SNB-19 CNS; 53.4 µM in the assay on SNB-75 CNS; more than 100 µM in the assay on UACC-257 melanoma; more than 100 µM with UACC-62 melanoma.
